In this test the target is Ghrelin receptor (Homo sapiens, UniProt Q92847). Briefly: Receptor Selection and Amplification Technology (R-SAT) assay. Further details: expressed in transfected cells; host or cells: NIH3T3. The note with it: for IC50: negative logarithm of ligand concentration causing 50% inhibition of constitutive receptor response, transfected NIH3T3 cells, '—' not defined (nd used separately), read-out: RSAT pIC50 (converted); for Emax: read-out: RSAT Eff(%). The test is classed as cell-based.
Ghrelin receptor, sequence (Q92847 whole entry): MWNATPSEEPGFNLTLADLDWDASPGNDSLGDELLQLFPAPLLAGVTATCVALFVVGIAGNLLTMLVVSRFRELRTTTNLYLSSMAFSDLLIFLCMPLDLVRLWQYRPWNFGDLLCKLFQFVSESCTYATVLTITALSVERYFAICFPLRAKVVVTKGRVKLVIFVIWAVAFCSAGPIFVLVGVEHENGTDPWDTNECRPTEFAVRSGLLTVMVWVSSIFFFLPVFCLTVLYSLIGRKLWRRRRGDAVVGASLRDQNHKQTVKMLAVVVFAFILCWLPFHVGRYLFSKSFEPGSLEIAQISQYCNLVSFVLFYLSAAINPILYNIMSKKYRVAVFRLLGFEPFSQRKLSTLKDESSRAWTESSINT

The mark [1] stands for this setting: percent inhibition at saturating ligand, normalized to reference ligand Substance P analog = 100%.

Read-outs that look alike come from different tables or passages of the source.

`CCCCC1CCN(CCCn2cc(C(C)=O)c3cccc(Cl)c32)CC1`: the IC50 is 0.316 µM. The Emax under setting [1] was determined as 80%.

On to `CC(=O)c1cn(CCCCN2CCC(c3nc4ccccc4s3)CC2)c2ccccc12`, for which the IC50 was 0.398 µM. For the same molecule, the Emax under setting [1] stood at 81%.

Regarding `CCCCC1CCN(CCCn2cc(C(=O)CC(C)C)c3ccccc32)CC1`, the IC50 is 0.398 µM. The Emax under setting [1] turned out to be 85%.

As to `CCOC(=O)C1CCN(CCCn2cc(C(C)=O)c3cccc(OC)c32)CC1`, the IC50 was 0.398 µM. Besides, the Emax under setting [1] amounted to 127%.

Take `O=C(c1cn(CCCN2CCC(c3nc4ccccc4s3)CC2)c2ccccc12)C(F)(F)F`: the IC50 is 0.398 µM. Besides, the Emax under setting [1] is 88%.

Regarding `CC(=O)c1c(C)n(CCCN2CCCN(Cc3ccc(F)cc3)CC2)c2c(Br)cccc12`, the IC50 was 0.398 µM. The Emax under setting [1] turned out to be 49%.

In the case of `COc1ccc2c(C(C)=O)cn(CCCN3CCC(Oc4ccc(Cl)cc4)CC3)c2c1`, the IC50 is 0.398 µM. In addition, the Emax under setting [1] was determined as 67%.

On to `CCCCC1CCN(CCCn2cc(C(C)=O)c3cc(OC)ccc32)CC1`, for which the IC50 was 0.398 µM. In addition, the Emax under setting [1] worked out at 118%.

Turning to `COc1cccc2c(C#N)cn(CCCN3CCN(c4ncc(C(F)(F)F)cc4Cl)CC3)c12`, the IC50 was 0.398 µM. In addition, the Emax under setting [1] came out at 97%.

In the case of `CC(=O)c1cn(CC(C)CN2C3CCC2CC(OCC2CC2)C3)c2ccccc12` (centres unmarked), the IC50 was 0.398 µM. Under setting [1], the Emax is 65%.

With `CC(=O)c1cn(CCN2CCC(Cc3ccccc3)CC2)c2ccccc12`, the IC50 is 0.398 µM. In addition, the Emax under setting [1] was 77%.

On to `CC(=O)c1cn(CCCN2CCC(c3nc(-c4ccccc4)no3)CC2)c2c(Br)cccc12`, for which the IC50 was 0.501 µM. For the same molecule, the Emax under setting [1] came out at 69%.

Consider `CC(=O)c1cn(CCCN2CCN(CCOc3ccccc3)CC2)c2c(Br)cccc12`, for which the IC50 is 0.501 µM. The Emax under setting [1] is 91%.

Take `COc1ccc2c(c1)c(C(C)=O)cn2CCCN1CCC(Oc2ccc(Cl)cc2)CC1`: the IC50 was 0.501 µM. Moreover, the Emax under setting [1] came to 104%.

`COc1ccc2c(C(C)=O)cn(CCCN3C4CCC3CC(OC3=CC=C(Cl)CC3)C4)c2c1` (centres unmarked): the IC50 is 0.501 µM. The Emax under setting [1] stood at 108%.

Regarding `CC(C)CNC(=O)c1cn(CCCN2CCC(Oc3ccc(F)cc3)CC2)c2ccccc12`, the IC50 was 0.501 µM and the Emax came out at 94%.

Turning to `O=C(c1cn(CCCN2C3CCC2CC(OCC2CC2)C3)c2ccccc12)C(F)(F)F` (centres unmarked), the IC50 was 0.501 µM. Moreover, under setting [1], the Emax was 103%.

As for `CC(=O)c1cn(CC(C)CN2CCC(Oc3ccc(F)cc3)CC2)c2ccccc12` (centres unmarked), the IC50 was 0.501 µM. The Emax under setting [1] amounted to 98%.

For the molecule `CCCCC1CCN(CCCn2cc(C(=O)C(F)(F)F)c3ccccc32)CC1`, the IC50 is 0.501 µM. The Emax under setting [1] was 74%.

Turning to `COc1ccc2c(c1)c(C(C)=O)cn2CCCN1CCN(C(C)c2ccccc2)CC1` (centres unmarked), the IC50 was 0.501 µM. For the same molecule, under setting [1], the Emax stood at 77%.

Turning to `CC(=O)c1cn(CCCN2C3CCC2CC(OCC2CC2)C3)c2cc(Br)ccc12` (centres unmarked), the IC50 is 0.501 µM. Besides, under setting [1], the Emax was found to be 130%.

Consider `COc1ccccc1C1CCN(CCCn2cc(C(C)=O)c3cccc(Cl)c32)CC1`, for which the IC50 is 0.501 µM. Besides, the Emax under setting [1] was found to be 103%.

Consider `CC(=O)c1cn(CCCN2C3CCC2CC(CC(=O)c2ccc(Cl)cc2)C3)c2c(Cl)cccc12` (centres unmarked), for which the IC50 was 0.501 µM. For the same molecule, the Emax under setting [1] is 41%.

For the molecule `COc1cccc2c(C(C)=O)cn(CCCN3CCN(CC4CCCO4)CC3)c12` (centres unmarked), the IC50 is 0.631 µM. Moreover, the Emax under setting [1] came out at 98%.

Turning to `CCCOC1CCN(CC(C)Cn2cc(C(C)=O)c3ccccc32)CC1` (centres unmarked), the IC50 is 0.631 µM. In addition, under setting [1], the Emax turned out to be 74%.

For `CC(=O)c1cn(CCCN2CCC(c3nc(-c4cccnc4)no3)CC2)c2c(Cl)cccc12`, the IC50 was 0.631 µM. For the same molecule, the Emax under setting [1] worked out at 101%.

With `O=C(c1ccccc1)C1CCN(CCCn2cc(C(=O)C(F)(F)F)c3ccccc32)CC1`, the IC50 is 0.631 µM. Under setting [1], the Emax is 63%.

For `COc1ccccc1C1CCN(CCCn2cc(C(=O)CC(C)C)c3ccccc32)CC1`, the IC50 was 0.631 µM. The Emax under setting [1] worked out at 100%.

Consider `CCCCC1CCN(CCCn2cc(C(C)=O)c3ccc(OC)cc32)CC1`, for which the IC50 is 0.631 µM. The Emax under setting [1] was 63%.

On to `COc1ccc2c(c1)c(C(C)=O)cn2CCCN1CCC(Oc2ccc(F)cc2)CC1`, for which the IC50 was 0.631 µM. Also, the Emax under setting [1] was 58%.

Turning to `CCCCC1CCN(CCCn2cc(CCC(C)=O)c3ccccc32)CC1`, the IC50 was 0.631 µM. Besides, the Emax under setting [1] turned out to be 76%.

Take `CC(=O)c1cn(CCCN2CCN(CCOc3ccccc3)CC2)c2ncccc12`: the IC50 was 0.631 µM. In addition, under setting [1], the Emax was determined as 81%.

Turning to `CC(=O)c1cn(CCCN2C3CCC2CC(Oc2ccccc2Cl)C3)c2c(C)cccc12` (centres unmarked), the IC50 is 0.794 µM. In addition, the Emax under setting [1] is 101%.

As to `CCCCC(=O)c1cn(CCCN2CCC(C(=O)c3ccccc3)CC2)c2ccc(OC)cc12`, the IC50 is 0.794 µM and the Emax came out at 98%.

As to `CCC(=O)c1cn(CCCN2CCC(Oc3ccc(F)cc3)CC2)c2ccccc12`, the IC50 is 0.794 µM. Also, under setting [1], the Emax amounted to 90%.

With `COc1ccc2c(C(C)=O)cn(CCCN3CCC(C(=O)c4ccccc4)CC3)c2c1`, the IC50 was 0.794 µM. Further, the Emax under setting [1] was 66%.

For the molecule `O=C(c1cn(CCCN2CCC(Oc3ccc(F)cc3)CC2)c2ccccc12)C(F)(F)F`, the IC50 is 0.794 µM. The Emax under setting [1] is 75%.

On to `CC(=O)c1cn(CC(C)CN2CCN(C(C)c3ccccc3)CC2)c2ccccc12` (centres unmarked), for which the IC50 was 1 µM. For the same molecule, the Emax under setting [1] is 35%.

Consider `CCCCC1CCN(CCCn2cc(C(=O)CC)c3ccccc32)CC1`, for which the IC50 is 1 µM. Further, the Emax under setting [1] was 92%.

For `COc1ccc2[nH]c3c(c2c1)CCN(CCCn1cc(C(=O)CC(C)C)c2ccccc21)C3`, the IC50 was 1 µM and the Emax is 123%.

With `COc1ccc2c(c1)c(C(C)=O)cn2CCCN1CCC(C(=O)c2ccccc2)CC1`, the IC50 is 1 µM. The Emax under setting [1] came out at 72%.

`COc1ccc2c(c1)c(C(C)=O)cn2CCCN1CCC(Oc2ccccc2Cl)CC1`: the IC50 was 1 µM. The Emax under setting [1] was 95%.

As for `COc1cccc2c(C(C)=O)cn(CCCN3CCC4CCCCC4C3)c12` (centres unmarked), the IC50 was 1 µM. The Emax under setting [1] is 69%.

As for `CC(=O)c1cn(CCCN2CCCC(Oc3ccc(Cl)cc3)C2)c2c(Br)cccc12` (centres unmarked), the IC50 was 1.26 µM. In addition, the Emax under setting [1] turned out to be 46%.

For the molecule `CC(=O)CCc1cn(CCCN2CCC(Oc3ccc(F)cc3)CC2)c2ccccc12`, the IC50 is 1.26 µM. Under setting [1], the Emax worked out at 80%.

`CCCCC(=O)c1cn(CCCN2CCN(C(C)c3ccccc3)CC2)c2ccc(OC)cc12` (centres unmarked): the IC50 is 1.26 µM. In addition, the Emax under setting [1] came out at 81%.

As to `COc1ccc2c(c1)c(C(C)=O)cn2CCCN1C2CCC1CC(Oc1ccc(Cl)cc1)C2` (centres unmarked), the IC50 is 1.26 µM. Besides, under setting [1], the Emax is 105%.

For `CCCOC1CCN(CCCn2cc(C(C)=O)c3ccc(OC)cc32)CC1`, the IC50 is 1.26 µM. The Emax under setting [1] came out at 61%.

For `CC(=O)c1cn(CCCN2CCC(Oc3ccc(Cl)cc3)CC2)c2cc(Br)ccc12`, the IC50 was 1.26 µM. The Emax under setting [1] came out at 74%.
